Source: patent publication US8349835B2, “Aromatic ring fused triazine derivatives and uses thereof” (Shenyang Pharmaceutical University, priority 2008, dated 2013)
pIC50: −log10 of the molar value.

Legend:
[1] = system: Microvascular Endothelial Cells (MVEC); experiment: MTT growth inhibition of MVEC; assay type: cell-based; details: Endothelial cell, 96 h, 4 days culture with drug, read-out: IG50 on inhibiting growth of MVEC
Protocol: In Vitro Anti-Tumor Activity Test
Put cell suspension into centrifugal tubes with a pipette under sterile conditions, then the cell suspension was centrifuged for 3 minutes at 1300 rpm. Discarded the supernatant lightly and added fresh culture medium. Mixed the cells by pipetting, then transferred the cells into culture flasks, and put them into the CO2 incubator. Changed the culture medium once after 24 hours.
Human prostate cancer cells (DU145, PC-3) were cultured in a medium containing RPMI1640 basic medium supplemented with 10% heat-inactivated FBS, 100 IU/mL penicillin, 100 μg/mL streptomycin and 1 mmol/L L-glutamine. Human breast carcinoma cells (T47D, MDA-MB231) were cultured in a medium containing RPM11640 basic medium supplemented with 10% heat-inactivated FBS, 5 μg/mL insulin, 100 IU/mL penicillin, 100 μg/mL streptomycin and 1 mmol/L L-glutamine. Human breast carcinoma cells (MCF-7) were cultured in a medium containing DMEM basic medium supplemented with 10% heat-inactivated FBS, 5 μg/mL insulin, 100 IU/mL penicillin, 100 μg/mL streptomycin and […]. Murine Lewis lung cancer cells (LL/2), murine melanoma cells (B16FD) and Microvascular Endothelial Cells (MVEC) were cultured in a medium containing DMEM basic medium supplemented with 10% heat-inactivated FBS, 4.5 g/L glucose, 1.5 g/L NaHCO3, 100 IU/mL penicillin, 100 μg/mL streptomycin and 4 mmol/L L-glutamine. All these cell lines were incubated at 37° C. biochemical incubator with 5% CO2 saturated humidity.
After resuscitation, the cells were passed for 2-3 generations till they became stable, then they were used for the experiments. Each passage was based on the standard that all cells were spread over the bottoms of culture flasks.
Cells were digested off from the bottoms of culture flasks with trypsin (0.25%). The cell dissociation buffer was transferred into centrifuge tubes, added medium to stop the digestion, and centrifuged for 3 minutes at 1300 rpm. Discarded the supernatant lightly and added fresh culture medium (5 mL). Mixed the cells by pipetting, then added 10 μL of the cell suspension into the cell counting plate, and adjusted the cell concentration to 2×10^4 cells/mL. Added 100 μL of the cell suspension to all wells on the 96 well plates, except A1 well as the blank control. Put the plates into the biochemical incubator for 24 hours and to make sure the cells grew along the walls.
The drugs were dissolved in 80 mmol/L DMSO first, and then diluted the drugs with ethanol to 8 mmol/L. The solution was further diluted with the culture medium to different concentrations as 160 μmol/L, 120 μmol/L, 80 μmol/L, 40 μmol/L, 20 μmol/L and 10 μmol/L. Added 100 μL of the drug solution to each well on the 96 well plates. Therefore, the final concentrations of the drugs that were added to the cells were 80 μmol/L, 40 μmol/L, 20 μmol/L, 10 μmol/L and 5 μmol/L, and each concentration were repeated in three parallel wells. Put the culture plates into the biochemical incubator to culture continuously for 4 days.
Added 50 μL MTT liquids (2 mg/mL) into each well, put the culture plates into the biochemical incubator for 4 h, discarded MTT liquids (TCC), added 200 μL DMSO, then oscillated for 10 minutes on the magnetic oscillator to make sure that the survived cells and the reaction product of MTT were fully dissolved. Detected and recorded the absorbance (OD) values of each well at the wavelength of 570 nm using the microplate reader. The OD values of cells without tested drugs were used as control. The cell growth inhibition rates under each drug concentration were calculated by the following formula. […] Inhibition rate of growth(%)=(1−The absorbance(OD)of cells with tested drugs/The absorbance(OD)of the blank control group)×100%
The absorbance (OD) of cells with tested drugs: OD value is measured with the test drugs.
The absorbance (OD) of the blank control group: OD value is measured without the test drugs. […]

Rat aortic ring = experiment: Rat Aortic Ring Assay; assay type: cell-based; details: for Rat Aortic Ring Assay (10 ug/ml), result in words: observed on the sixth day; for inhibition at 10 µg/mL: Rattus norvegicus, 10 ug/ml, compared with blank control, sixth day
Method in brief: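 1 mm abdominal aortic rings from 6-week-old SD animals embedded in Matrigel, cultured in DMEM/10% FBS with compound at various concentrations (≥3 wells), medium and compound renewed day 3. Microvessel area imaged on day 6 (×100, 3 random rings); inhibition rate scored: ⋆<30-60%, ⋆⋆60-90%, ⋆⋆⋆>90%.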

[2] = system: chorioallantoic membrane vessels; experiment: Activity test by chick chorioallantoic membrane method; assay type: in vivo; details: 5 uL medicine on cellulose membrane, chick embryo, 2 days
Protocol: After the shell membrane became wet, tore it open with ophthalmological tweezers so to expose the chorioallantoic membrane. • 6) Added 5 uL of selected medicine to a 0.5×0.5 cm cellulose membrane sterilized by high pressure, then set the membrane on the part of the chorioallantoic membrane with fewer vessels • 7) Closed the window, and put the embryos back into the hatch box to hatch for 2 days. • 8) Opened the transparent tape, and then opened the mixed cellulose membrane lightly with a tweezers. Measured the avascular area and took photographs.

VEGFR-2 = VEGFR-2 (Homo sapiens, UniProt P35968); experiment: VEGFR-2 inhibition rate test (kinase assay kit, colorimetric ELISA); details: concentration not given
Sequence of VEGFR-2 (P35968 20-1356): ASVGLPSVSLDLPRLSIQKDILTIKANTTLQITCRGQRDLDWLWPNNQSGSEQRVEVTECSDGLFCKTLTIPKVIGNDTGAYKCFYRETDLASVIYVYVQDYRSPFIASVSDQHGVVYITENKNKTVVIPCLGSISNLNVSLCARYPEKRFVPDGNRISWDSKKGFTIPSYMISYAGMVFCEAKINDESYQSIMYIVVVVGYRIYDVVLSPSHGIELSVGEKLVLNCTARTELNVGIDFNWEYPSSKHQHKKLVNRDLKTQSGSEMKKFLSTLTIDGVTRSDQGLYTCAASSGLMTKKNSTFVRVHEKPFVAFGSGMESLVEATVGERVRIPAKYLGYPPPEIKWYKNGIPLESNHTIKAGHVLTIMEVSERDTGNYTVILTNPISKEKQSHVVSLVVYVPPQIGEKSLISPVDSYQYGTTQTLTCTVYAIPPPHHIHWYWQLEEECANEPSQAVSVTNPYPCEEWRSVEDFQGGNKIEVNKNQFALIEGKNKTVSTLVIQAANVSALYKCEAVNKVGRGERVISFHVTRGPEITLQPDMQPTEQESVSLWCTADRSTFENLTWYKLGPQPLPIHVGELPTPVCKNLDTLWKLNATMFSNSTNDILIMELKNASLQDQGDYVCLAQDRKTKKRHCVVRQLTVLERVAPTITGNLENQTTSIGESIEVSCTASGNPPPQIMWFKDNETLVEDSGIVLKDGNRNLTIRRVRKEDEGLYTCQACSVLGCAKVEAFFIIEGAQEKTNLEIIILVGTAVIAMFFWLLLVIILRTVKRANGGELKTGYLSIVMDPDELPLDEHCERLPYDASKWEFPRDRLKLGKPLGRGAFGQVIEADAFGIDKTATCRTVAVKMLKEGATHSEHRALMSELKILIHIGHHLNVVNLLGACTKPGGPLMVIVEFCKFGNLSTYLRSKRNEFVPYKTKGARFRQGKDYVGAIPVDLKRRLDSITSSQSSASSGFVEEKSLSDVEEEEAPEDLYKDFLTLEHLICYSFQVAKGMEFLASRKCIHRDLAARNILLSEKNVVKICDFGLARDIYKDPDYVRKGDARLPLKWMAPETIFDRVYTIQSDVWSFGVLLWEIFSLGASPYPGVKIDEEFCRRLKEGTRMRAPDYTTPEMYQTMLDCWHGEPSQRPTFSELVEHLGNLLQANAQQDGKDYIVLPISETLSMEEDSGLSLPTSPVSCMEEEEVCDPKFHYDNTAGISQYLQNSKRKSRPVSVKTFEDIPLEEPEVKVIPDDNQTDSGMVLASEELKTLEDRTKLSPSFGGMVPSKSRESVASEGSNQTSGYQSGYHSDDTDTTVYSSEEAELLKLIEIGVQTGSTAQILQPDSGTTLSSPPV

CCOc1cc2nnnc(Nc3ccc(F)c(C(F)(F)F)c3)c2cc1OC [Example 40, 6-methoxy-7-ethoxy-4-(3-trifluoromethyl-4-fluoroanilino)-benzo[d][1,2,3]triazine]
pIC50 [1]: 4.50
Rat Aortic Ring Assay (10 ug/ml), result in words (Rat aortic ring): No significant inhibition
The inhibitory effect on the growth of chorioallantoic membrane vessels [2]: One of the two samples exhibits inhibition

CCCCOc1cc2nnnc(Nc3ccc(F)c(C(F)(F)F)c3)c2cc1OC [Example 23, 6-methoxy-7-n-butoxy-4-(3-trifluoromethyl-4-fluoroanilino)-benzo[d][1,2,3]triazine]
pIC50 [1]: 4.79
Rat Aortic Ring Assay (10 ug/ml), result in words (Rat aortic ring): Cell morphology was similar to D10, and cells were linear.
The inhibitory effect on the growth of chorioallantoic membrane vessels [2]: The vessels covered by paper become thinner and fewer.

CCOc1cc2nnnc(Nc3cccc(OC(F)(F)F)c3)c2cc1OC [Example 36, 6-methoxy-7-ethoxy-4-(3-trifluoromethoxyanilino)-1,2,3-benzotriazine]
pIC50 [1]: 4.63
Rat Aortic Ring Assay (10 ug/ml), result in words (Rat aortic ring): Almost complete inhibition (10 μg/mL)
The inhibitory effect on the growth of chorioallantoic membrane vessels [2]: One sample exhibits no vascular growth at the zone covered by paper.

COc1cc2c(Nc3ccc(F)cc3)nnnc2cc1OCCCCl [Example 76, 6-methoxy-7-chloropropoxy-4-(4-fluoroanilino)-benzo[d][1,2,3]triazine]
pIC50 [1]: 4.64
Rat Aortic Ring Assay (10 ug/ml), result in words (Rat aortic ring): No significant inhibition
Kinase inhibition rate (VEGFR-2) (VEGFR-2): 9.35
The inhibitory effect on the growth of chorioallantoic membrane vessels [2]: The vessels become rare at the zone covered by paper.

Fc1ccc(Nc2nnnc3ccc(Cl)nc23)cc1 [Example 93, 6-chloro-4-(4-fluoroanilino)pyrido[3,2-d][1,2,3]triazine]
pIC50 [1]: 4.93
Kinase inhibition rate (VEGFR-2) (VEGFR-2): 5.27
The inhibitory effect on the growth of chorioallantoic membrane vessels [2]: One of the two samples exhibits death of the embryo, and the other exhibits

Clc1ccc2nnnc(Nc3cccc(Br)c3)c2n1 [Example 92, 6-chloro-4-(3-bromoanilino)-pyrido[3,2-d][1,2,3]triazine]
pIC50 [1]: 5.14
inhibition at 10 µg/mL (Rat aortic ring): > 50%
The inhibitory effect on the growth of chorioallantoic membrane vessels [2]: One of the two samples exhibits significant vascular inhibition.

Fc1ccc(Nc2nnnc3ccc(Cl)nc23)cc1C(F)(F)F [Example 90, 6-chloro-4-(3-trifluoromethyl-4-fluoroanilino)pyrido[3,2-d][1,2,3]-triazine]
pIC50 [1]: 4.97
The inhibitory effect on the growth of chorioallantoic membrane vessels [2]: One exhibits no inhibition, and embryo of the other sample is dead.

CCCCCOc1cc2nnnc(Nc3cccc(C(F)(F)F)c3)c2cc1OC [Example 50, 6-methoxy-7-pentyloxy-4-(3-trifluoromethylanilino)-benzo[d][1,2,3]triazine]
Rat Aortic Ring Assay (10 ug/ml), result in words (Rat aortic ring): No significant inhibition compared with the blank control
Kinase inhibition rate (VEGFR-2) (VEGFR-2): −9.35
The inhibitory effect on the growth of chorioallantoic membrane vessels [2]: One of the two samples exhibits inhibition ring.

CCCCOc1cc2nnnc(Nc3ccc(F)c(Cl)c3)c2cc1OC [Example 22, 6-methoxy-7-n-butoxy-4-(3-chloro-4-fluoroanilino)-benzo[d][1,2,3]triazine]
pIC50 [1]: 4.76
Rat Aortic Ring Assay (10 ug/ml), result in words (Rat aortic ring): Cell proliferation and migration were affected. Endothelial cell
Kinase inhibition rate (VEGFR-2) (VEGFR-2): 0.80
The inhibitory effect on the growth of chorioallantoic membrane vessels [2]: The vessels are fractured at the central part that is covered by paper.

CCCCOc1cc2nnnc(Nc3cccc(OC(F)(F)F)c3)c2cc1OC [Example 19, 6-methoxy-7-n-butoxy-4-(3-trifluoromethoxyanilino)-benzo[d][1,2,3]triazine]
Rat Aortic Ring Assay (10 ug/ml), result in words (Rat aortic ring): No significant inhibition compared with the blank control.
Kinase inhibition rate (VEGFR-2) (VEGFR-2): −56.68
The inhibitory effect on the growth of chorioallantoic membrane vessels [2]: Vessels are broken in one of two samples,

CCCCCOc1cc2nnnc(Nc3cc(F)cc(F)c3)c2cc1OC [Example 47, 6-methoxy-7-pentyloxy-4-(3,5-difluoroanilino)-benzo[d][1,2,3]triazine]
pIC50 [1]: 4.55
Rat Aortic Ring Assay (10 ug/ml), result in words (Rat aortic ring): No significant inhibition
The inhibitory effect on the growth of chorioallantoic membrane vessels [2]: The vessels in the paper covered zone become fewer,

COc1cc2c(Nc3ccc(Br)c(F)c3)nnnc2cc1OCCCCl [Example 62, 6-methoxy-7-chloropropoxy-4-(3-fluoro-4-bromoanilino)-benzo[1,2,3]triazine]
Rat Aortic Ring Assay (10 ug/ml), result in words (Rat aortic ring): No significant inhibition
Kinase inhibition rate (VEGFR-2) (VEGFR-2): 18.10
The inhibitory effect on the growth of chorioallantoic membrane vessels [2]: The embryo is dead.

COc1cc2c(Nc3cccc(Br)c3)nnnc2cc1OCCCCl [Example 75, 6-methoxy-7-chloropropoxy-4-(3-bromoanilino)-benzo[d][1,2,3]triazine]
Rat Aortic Ring Assay (10 ug/ml), result in words (Rat aortic ring): No significant inhibition
Kinase inhibition rate (VEGFR-2) (VEGFR-2): 0.80
The inhibitory effect on the growth of chorioallantoic membrane vessels [2]: Smaller inhibition ring appears at the zone covered by paper.

CCCCCOc1cc2nnnc(Nc3cccc(OC(F)(F)F)c3)c2cc1OC [Example 53, 6-methoxy-7-pentyloxy-4-(3-trifluoromethoxyanilino)-benzo[d][1,2,3]triazine]
pIC50 [1]: 4.42
Rat Aortic Ring Assay (10 ug/ml), result in words (Rat aortic ring): No significant inhibition
Kinase inhibition rate (VEGFR-2) (VEGFR-2): 11.22
The inhibitory effect on the growth of chorioallantoic membrane vessels [2]: Both of the samples exhibit inhibition ring at the central part of the paper,

FC(F)(F)Oc1cccc(Nc2nnnc3ccccc23)c1 [Example 7, 4-(3-trifluoromethoxyanilino)-benzo[d][1,2,3]triazine]
Rat Aortic Ring Assay (10 ug/ml), result in words (Rat aortic ring): No significant inhibition
Kinase inhibition rate (VEGFR-2) (VEGFR-2): −17.64
The inhibitory effect on the growth of chorioallantoic membrane vessels [2]: Two samples exhibit significant inhibition ring

COc1cc2c(Nc3cccc(C(F)(F)F)c3)nnnc2cc1OCCCCl [Example 67, 6-methoxy-7-chloropropoxy-4-(3-trifluoromethylanilino)-benzo[d][1,2,3]triazine]
pIC50 [1]: 4.67
inhibition at 10 µg/mL (Rat aortic ring): > 50%
Kinase inhibition rate (VEGFR-2) (VEGFR-2): 0.26
The inhibitory effect on the growth of chorioallantoic membrane vessels [2]: The embryo is dead.
